Reference: patent US9212147B2, “Dihydroxy aromatic heterocyclic compound” (TAKEDA PHARMACEUTICAL COMPANY LIMITED, priority 2011, dated 2015)

Columns and labels:
[1] = target: recombinant human DAAO protein (Homo sapiens (Human), UniProt P14920); assay: DAAO inhibitory activity test (H2O2 production, Amplex red/HRP fluorescence); type: biochemical; details: recombinant human DAAO 15 nM, D-alanine substrate, FAD, pH 7.5
Protocol: The DAAO inhibitory activity was measured by assaying the amount of hydrogen peroxide (H2O2) produced by reacting DAAO protein with flavin adenine dinucleotide (FAD) and D-alanine. The amount of H2O2 was determined by measuring the fluorescence generated on conversion of Amplex red (manufactured by Invitrogen Co.) into resorufin by the reaction of H2O2 with horseradish peroxidase (HRP).
Escherichia coli strain BL21(DE3) (manufactured by Novagen) was transformed with the constructed human DAAO expression vector, inoculated into LB culture medium containing kanamycin at a final concentration of 20 μg/mL, and shake-cultured at 37° C. overnight. The multiplied transformant was inoculated into Terrific Broth containing kanamycin at a final concentration of 20 μg/mL, and shake-cultured at 37° C. until it reached OD600=3.0. Thereafter, the culture was cooled to 30° C., and expression was induced with 1 mM IPTG. After 20 hours, bacterial pellets were recovered by centrifugation.
The bacterial pellets recovered as above were suspended in a lysis buffer (17 mM sodium pyrophosphate buffer pH 8.3, 100 μM FAD, 1 mM sodium benzoate, 1 mM PMSF, 14 mM β-mercaptoethanol, 0.2 mg/mL lysozyme) and the bacteria were fractured by sonication. The sonicated liquid was centrifuged and the supernatant was recovered. To remove the nucleic acid, to this supernatant were sequentially added NaCl (final concentration 0.5M) and 0.05% ethyleneimine (polymer) and, after thorough mixing, the supernatant was recovered by centrifugation. The supernatant was heat treated at 55° C. for 15 min, and the supernatant was recovered by centrifugation. To this supernatant was added 40% saturated ammonium sulfate and, after thorough mixing, the salt precipitate was recovered by centrifugation. The obtained salt precipitate was redissolved in buffer A (50 mM potassium phosphate buffer pH 7.4, 10% glycerol, 200 μM sodium benzoate, 10 μM FAD, 20% saturated ammonium sulfate), and filtered through a 0.22 μm filter (manufactured by Millipore). The obtained filtrate was applied to a hydrophobic interaction column Butyl-S Sepharose 6 Fast Flow (manufactured by GE Healthcare Life Sciences) and eluted with buffer B (10 mM Tris buffer solution pH 8.0, 200 μM sodium benzoate, 10% glycerol, 10 μM FAD). The eluent was applied to an anion-exchange column, Q Sepharose Fast Flow (manufactured by GE Healthcare Life Sciences) and eluted using an NaCl concentration gradient. The eluate was replaced with buffer B (sic) using Amicon Ultra-15 10 kDa (manufactured by Millipore), and thereafter applied to an anion-exchange column, RESOURCE Q 6 mL (manufactured by GE Healthcare Life Sciences), and eluted with an NaCl concentration gradient. The eluate was concentrated using Amicon Ultra-15 10 kDa, thereafter applied to a HiLoad 26/600 Superdex 200 pg (manufactured by GE Healthcare Life Sciences) gel filtration column equilibrated with buffer C (10 mM potassium phosphate buffer pH 7.4, 0.5M NaCl, 400 μM sodium benzoate, 20 μM FAD), and the DAAO protein dimer fraction was recovered. The recovered DAAO protein was replaced (sic) with buffer D (10 mM trisodium citrate, 20 μM FAD, 400 μM sodium benzoate) using Amicon Ultra-15 10 kDa, concentrated to 10 mg/mL and cryopreserved at −80° C.

[2] = target: HEK293 cells that stably express human DAAO (Homo sapiens (Human), UniProt P14920); assay: Inhibitory activity test at cellular level using DAAO-expressing cells; type: cell-based; details: D-alanine substrate
Protocol: HEK293 cells that stably express human DAAO were suspended in Cellbanker solution at 5×10^6 cells/ml and cryopreserved at −80° C. At the time of measurement, the cells were centrifuged at 1000 rpm for one min and the Cellbanker solution was removed. […] A 4% DMSO buffer solution (50 mM sodium phosphate [pH 7.5], 0.02% CHAPS) of the test compound (4 μL) was added to a 384-well black, low volume plate, the cell suspension (4 μL) was added, and the mixture was incubated at room temperature for 15 min.
Reverse transcription was performed on human normal kidney tissue-derived RNA (Clontech Corp.) using reverse transcriptase (SuperScriptIII, Life Technologies Corporation) and oligo (dT) primer (Life Technologies Corporation) according to the protocol of the kit (Life Technologies Corporation) and cDNA was synthesized. Then, using human DAAO_HindIII_F represented by Sequence No. 1 and human DAAO_BamHI_R represented by Sequence No. 2, a PCR reaction (35 cycles of 98° C. for 15 sec, 55° C. for 15 sec and 68° C. for 1 min 30 sec) was performed using DNA polymerase (PrimeSTAR, TAKARA BIO INC.) and cDNA obtained as above as a template. […] The PCR product was cloned in a cloning vector (pCR2.1-TOPO Cloning Kit, Life Technologies Corporation). The sequence of the insert was determined by the dideoxy sequence method (BigDye Terminator v3.1 Cycle Sequencing Kit; Life Technologies Corporation).
To express the ORF full length of DAAO as a protein, the above-mentioned vector was subjected to an enzyme reaction with restriction enzymes HindIII and BamHI at 37° C. for 3 hr, and the restriction enzyme-treated DNA fragment was purified. The DNA fragment containing the ORF was cloned to HindIII and BamHI sites present in the multiple cloning site of the expression vector (pcDNA3.1(+): Invitrogen Co.), whereby an expression plasmid (hDAAO/pcDNA3.1) was constructed.
Then, HEK293 cells were transfected to obtain the forced expression cell line. The cells were spread on a collagen-coated 24-well plate (Corning) to contain 1.0×10^5 cells per well on the day before transfection and, using Lipofectamine 2000 (Invitrogen) and hDAAO/pcDNA3.1, transfected according to the protocol. Thereafter, subculture was performed several times using 800 μg/mL geneticin, whereby a drug resistant cell line was obtained.
To confirm acquisition of the human DAAO expression cell line, the cells were spread on a collagen-coated 384-well black, clear bottom plate to 2.5×10^4 per well, and the cells were cultured at 37° C. in the presence of 5% CO2 for 24 hr. After culturing, the culture supernatant was removed, and a solution containing flavin adenine dinucleotide was added to Hanks-20 mM Hepes (pH 7.4) buffer to 5.5 μg/mL, added by 20 μL per well to the wells from which the supernatant had been removed, and the mixture was allowed to react at 37° C. in the presence of 5% CO2 for 1 hr.

| SMILES | IC50 [1] [nM] | IC50 [2] [nM] |
| --- | --- | --- |
| Cc1ccc(CCc2cc(O)c(=O)[nH]n2)cc1 [Example 13] | 6.1 | 14 |
| O=c1[nH]nc(CCc2ccc(-c3ccccc3)cc2)cc1O [Example 15] | 1.2 | 16 |
| Cc1cccc(CCc2cc(O)c(=O)[nH]n2)c1 [Example 20] | 2.5 | 4.6 |
| O=c1[nH]nc(CCc2ccc(F)cc2F)cc1O [Example 21] | 2.2 | 5.5 |
| Cc1ccccc1CCc1cc(O)c(=O)[nH]n1 [Example 22] | 3.3 | 8.4 |
| CC(C)(C)c1ccc(CCc2cc(O)c(=O)[nH]n2)cc1 [Example 25] | 6.6 | 18 |
| COCCCc1cc(O)c(=O)[nH]n1 [Example 26] | 8.1 | – |
| O=c1[nH]nc(CCc2ccc(OC(F)(F)F)cc2)cc1O [Example 28] | 8.1 | 18 |
| CCCCc1cc(O)c(=O)[nH]n1 [Example 29] | 6.9 | 13 |
| Cc1cc(C)cc(CCc2cc(O)c(=O)[nH]n2)c1 [Example 40] | 4.7 | 9.8 |
| COc1ccc(SCc2cc(=O)c(O)n[nH]2)cc1 [Example 47] | 5.2 | 12 |
| O=c1[nH]nc(CCCCc2ccccc2)cc1O [Example 52] | 2.5 | 11 |
| O=c1[nH]nc(CCc2cccc3ccccc23)cc1O [Example 56] | 2.3 | 8.8 |
| O=c1[nH]cc(CCC2CCCCC2)cc1O [Example 58] | 44 | – |
| O=c1cc(COc2ccc(F)cc2)[nH]nc1O [Example 231] | 2.9 | 13 |
| O=c1cc(COc2cccc(F)c2)[nH]nc1O [Example 232] | 2.3 | 13 |
